Data as given in patent USRE42013E1, “Macrocyclic modulators of the ghrelin receptor” (Tranzyme Pharma Inc., priority 2003, dated 2010).
Read-outs that look alike come from different tables or passages of the source.

Assays:
[1] = molecular target: T1, human growth hormone secretagogue receptor (hGHS-R1a) (Homo sapiens, UniProt Q92847); experiment: Competitive radioligand binding assay (ghrelin receptor), [125I]-ghrelin displacement
T1 construct: purchased PerkinElmer BioSignal #RBHGHSM, lot#1887; host or cells: HEK-293, stably transfected
Procedure: The competitive binding assay at the human growth hormone secretagogue receptor (hGHS-R1a) was carried out analogously to assays described in the literature.
Multiscreen Harvest plates-GF/C (Millipore, #MAHFC1H60) • 4. […] Bottom seal (Millipore, #MATAH0P00) • 7. […] Binding Buffer: 25 mM Hepes (pH 7.4), 1 mM CaCl2, 5 mM MgCl2, 2.5 mM EDTA, 0.4% BSA Assay Volumes
Competition experiments were performed in a 300 μl filtration assay format. • 1. 220 μL of membranes diluted in binding buffer • 2. 40 μL of compound diluted in binding buffer • 3. […] Compound Handling
Compounds were provided frozen on dry ice at a stock concentration of 10 mM diluted in 100% DMSO and stored at −80° C. until the day of testing. On the test day, compounds were allowed to thaw at rt O/N and then diluted in assay buffer according to the desired test concentrations.
Plates were sealed with TopSeal-A, vortexed gently and incubated at rt for 30 min. The reaction was arrested by filtering samples through Multiscreen Harvest plates (pre-soaked in 0.5% polyethyleneimine) using a Tomtec Harvester, washed 9 times with 500 μL of cold 50 mM Tris-HCl (pH 7.4, 4° C.), and then plates were air-dried in a fumehood for 30 min. A bottom seal was applied to the plates prior to the addition of 25 μL of MicroScint-0 to each well. […] Results were expressed as counts per minute (cpm).
Data were analyzed by GraphPad Prism (GraphPad Software, San Diego, Calif.) using a variable slope non-linear regression analysis.
Compound structures for Tables 3A, 3B and 3D are presented with the various groups as defined for the general structure of formula I. For Tables 3B and 3D, in all entries, m, n and p are 0; X, Z1 and Z2 are each NH. For Table 3B, R1 is H for all entries. The tethers (T) are illustrated with the bonding to X and Z2 as indicated. The compounds themselves are shown for Table 3C.
• 1. […] Key Aspects of Method • 1. […] Results

[2] = molecular target: T2, human ghrelin receptor (hGHS-R1a) (Homo sapiens, UniProt Q92847); conditions: Table 4; functional (agonist) activity at human ghrelin receptor; TFA salts unless otherwise noted
Excerpt: (§1) B. Aequorin Functional Assay (Ghrelin Receptor)
(§2) This cell line is typically constructed by transfection of the human ghrelin receptor into CHO-K1 cells co-expressing Gα16 and the mitochondrially targeted Aequorin (Ref #ES-WT-A5). • 1. […] Assay buffer: DMEM (Dulbecco's Modified Eagles Medium) containing 0.1% BSA (bovine serum albumin; pH 7.0). • 3. Coelenterazine (Molecular Probes, Leiden, The Netherlands). Final test concentrations (N=8) for compounds of the invention: 10, 1, 0.3, 0.1, 0.03, 0.01, 0.003, 0.001 μM. Compound Handling
(§3) Assay plates were then prepared by appropriate dilution in DMEM medium containing 0.1% BSA. Under these conditions, the maximal final DMSO concentration in the assay was <0.6%.
(§4) AequoScreen™ cells were collected from culture plates with Ca^2+ and Mg^2+-free phosphate buffered saline (PBS) supplemented with 5 mM EDTA, pelleted for 2 min at 1000×g, re-suspended in DMEM—Ham's F12 containing 0.1% BSA at a density of 5×10^6 cells/mL, and incubated O/N at rt in the presence of 5 μM coelenterazinc. After loading, cells were diluted with assay buffer to a concentration of 5×10^5 cells/mL.
(§5) For agonist testing, 50 μL of the cell suspension was mixed with 50 μL of the appropriate concentration of test compound or ghrelin (reference agonist) in 96-well plates (duplicate samples). Ghrelin (reference agonist) was tested at several concentrations concurrently with the test compounds in order to validate the experiment. The emission of light resulting from receptor activation in response to ghrelin or test compounds was recorded using the Hamamatsu FDSS 6000 reader (Hamamatsu Photonics K.K., Japan).
Analysis and Expression of Results
(§6) Results were expressed as Relative Light Units (RLU). […] EC50, Hill slope and % Emax values are reported.
(§7) Key Aspects of Method • 1. Assay performed on CHO-K1 cells expressing the transfected, cloned human ghrelin receptor (hGHS-R1a) and Gα16. • 2. Suspended cells incubated O/N with coelenterazine. • 3. Stimulation of hGHS-R1a activates Gα16, causing intercellular Ca2+ release which ultimately leads to the oxidation of coelenterazine and the emission of a quantitative luminescent signal. • 4. Ghrelin was used as the positive control. • 5.

[3] = molecular target: T2, human ghrelin receptor (hGHS-R1a); experiment: cell-based
Excerpt: as §1, §2, §3, §4, §5
Analysis and Expression of Results
as §6, §7

[4] = tested on: gastric emptying in fasted rats; experiment: Gastric emptying in fasted rats (phenol red methylcellulose meal); type: in vivo, rat (Wistar)
Procedure: To examine the effects of compounds of the invention in a model for gastroparesis, compounds were evaluated for possible effects on gastric emptying in fasted rats.
GHRP-6 and test samples were dissolved in vehicle of 9% HPBCD/0.9% NaCl. Immediately following oral administration of methylcellulose (2%) containing phenol red (0.05%) (2 mL/rat), test substances or vehicle (9% HPBCD/0.9% NaCl) were each administered intravenously (i.v.) at a dosing volume of 5 mL/kg.
Male Wistar rats were provided by LASCO (A Charles River Licensee Corporation, Taiwan). Space allocation for 6 animals was 45×23×15 cm. Animals were housed in APEC® cages and maintained in a controlled temperature (22° C.-24° C.) and humidity (60%-80%) environment with 12 h light, 12 h dark cycles for at least one week in the laboratory prior to being used. Free access to standard lab chow for rats (Lab Diet, Rodent Diet, PMI Nutrition International, USA) and tap water was granted. All aspects of this work including housing, experimentation and disposal of animals were performed in general accordance with the Guide for the Care and Use of Laboratory Animals (National Academy Press, Washington, D.C., 1996).
Test substances were each administered intravenously to a group of 5 O/N-fasted Wistar derived male rats weighing 200±20 g immediately after methylcellulose (2%) containing phenol red (0.05%) was administered orally at 2 mL/animal. […] Following protein precipitation by 20% trichloroacetic acid (0.5 mL) and re-alkalization of the supernatant with 0.1 N NaOH, total phenol red remaining in the stomach was determined by a colorimetric method at 560 nm. A 30 percent or more (≧30%) increase in gastric emptying, detected as the decrease in phenol red concentration in the stomach relative to the vehicle control group, is considered significant.
• 1. […] Total phenol red remaining in the stomach was quantified by a colorimetric method at 560 nm. • 5. A >30% increase in gastric emptying, detected based on the phenol red concentration in comparison to the control group, is considered significant. […]

[5] = tested on: morphine-treated rats; experiment: Gastric emptying and gastrointestinal transit in model of opioid-delayed gastric emptying; type: in vivo, rat (Sprague-Dawley); conditions: 3 mg/kg s.c.
Excerpt: 7. The Effect of Compounds of the Invention on Gastric Emptying and Gastrointestinal Transit in a Model of Opioid-Delayed Gastric Emptying
Opioid analgesics, such as morphine, are well known to delay gastrointestinal transit which is an important side-effect for this class of drugs. The clinical term for this syndrome is opioid bowel dysfunction (OBD). Importantly, patients recovering from abdominal surgery experience post-operative ileus that is further exacerbated by concomitant opioid therapy for post-surgical pain.
• 1. […] Methods • 1. Rats (male, Sprague-Dawley, 250-300 g) are implanted with jugular vein catheters to accommodate dosing of test articles. • 2. Overnight-fasted rats are administered morphine (3 mg/kg s.c.). • 3. […] Radioactivity (^99mTc) in each tissue isolate is measured as a means of measuring the transit of the meal. Results

[6] = from CCC[C@@H](C(=O)N(C)[C@H](C)C(=O)N[C@H](Cc1ccccc1)C(=O)O)N(C[C@@H](C)Oc1ccccc1CCCN)C(=O)OC(C)(C)C; amide bond; DEPBT; THF; 25.0 mM; 25.0 °C; 16.0 h
[7] = Table 3C, binding activity at the human ghrelin receptor, class symbols, read-out: Ki
[8] = Table 4, binding at human ghrelin receptor, TFA salts unless otherwise noted, read-out: Ki
[9] = binding activity at the human ghrelin receptor, [125I]-ghrelin displacement, hGHS-R1a/HEK-293 membranes, read-out: Ki
[10] = [125I]-ghrelin displacement, hGHS-R1a HEK-293 membranes, read-out: Binding Activity at the Human Ghrelin Receptor (Ki)

T1 sequence (Q92847 whole entry): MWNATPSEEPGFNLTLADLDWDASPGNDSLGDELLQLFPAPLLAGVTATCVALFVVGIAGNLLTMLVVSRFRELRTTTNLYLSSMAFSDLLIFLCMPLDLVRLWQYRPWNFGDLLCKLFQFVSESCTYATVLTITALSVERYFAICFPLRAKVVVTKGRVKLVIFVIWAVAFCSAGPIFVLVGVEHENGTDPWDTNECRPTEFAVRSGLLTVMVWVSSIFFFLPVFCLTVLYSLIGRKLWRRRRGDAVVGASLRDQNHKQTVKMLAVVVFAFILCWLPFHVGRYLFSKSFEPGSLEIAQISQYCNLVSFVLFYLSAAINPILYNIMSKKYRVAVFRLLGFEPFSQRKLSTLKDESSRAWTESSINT
T2 sequence (Q92847 whole entry): as above

**Q.** Which results are given for `O=C1NC/C=C/c2ccccc2OCCNC2(CCCC2)C(=O)NC2(CCCC2)C(=O)N[C@H]1Cc1ccccc1` [compound 18]?
**A.** Ki [1, 7]: 10 to 100 nM; Ki [1, 8]: 10 to 100 nM; Ki [1, 9]: 10 to 100 nM; EC50 [2]: 1 to 100 nM

**Q.** With `CC(C)CC1NCCOc2ccccc2C=CCNC(=O)C(CC(C)C)NC(=O)C2(CCCC2)NC1=O` (stereo not shown) [compound 47] as the molecule, how does the Ki [1, 8] read?
**A.** 100 to 1000 nM

**Q.** What about the Ki [1, 9] of the same molecule?
**A.** 100 to 10000 nM

**Q.** What about the EC50 [3] of the same molecule?
**A.** 1 to 100 nM

**Q.** For `CCN(CC)CCNC(=O)c1cc(Cl)c(N)cc1OC` [metoclopramide, Metoclopramide, reference compound], which “gastric emptying of a solid meal in naïve rat” value ([4]; i.v. immediately after meal, 15 min) is on record?
**A.** significant gastric emptying

**Q.** What does the source list for `CC(C)C1NCCOc2ccccc2C=CCNC(=O)C(Cc2ccccc2)NC(=O)C2(CCOCC2)NC1=O` (stereo not shown) [compound 140]?
**A.** Ki [1, 8]: 100 to 1000 nM; Ki [1, 9]: 100 to 10000 nM; EC50 [3]: 100 to 1000 nM

**Q.** What does the source list for `CC1COc2ccccc2CCCNC(=O)C(Cc2ccc(F)cc2)NC(=O)C(C)N(C)C(=O)C(C2CC2)N1` (stereo not shown) [compound 394]?
**A.** Ki ([1]; Table 3B, binding at human ghrelin receptor, [125I]-ghrelin displacement, read-out: Ki): 0.1 to 10 nM; Ki [1, 8]: 0.1 to 10 nM; EC50 [3]: 100 to 1000 nM

**Q.** Which results are given for `C[C@H]1NC(=O)C2(CCCC2)NCCOc2ccccc2C=CCNC(=O)[C@H](Cc2cccc(Cl)c2)NC1=O` (stereo in doubt) [compound 351]?
**A.** Ki [1, 7]: 10 to 100 nM; Ki [1, 8]: 10 to 100 nM; EC50 [2]: 1 to 100 nM

**Q.** For `CCC(C)C1NCc2ccccc2CC=CCNC(=O)C(Cc2ccccc2)NC(=O)C(C)N(C)C1=O` (stereo not shown) [compound 193], which Ki [1, 8] is on record?
**A.** 100 to 1000 nM

**Q.** And the Ki [1, 10]?
**A.** 100 to 10000 nM

**Q.** What about the EC50 [3] of the same molecule?
**A.** 100 to 1000 nM

**Q.** For `CCC(C)C1NCc2ccccc2CC=CCCNC(=O)C(Cc2ccccc2)NC(=O)C(C)N(C)C1=O` (stereo not shown) [compound 195], which Ki [1, 8] is on record?
**A.** 10 to 100 nM

**Q.** And the Ki [1, 10]?
**A.** 10 to 100 nM

**Q.** And the EC50 [3]?
**A.** 1 to 100 nM

**Q.** Which Ki [1, 8] does the source give for `CCC(C)C1NCCOc2ccccc2CCCNC(=O)C(CC(C)C)NC(=O)C(C)N(C)C1=O` (stereo not shown) [compound 176] here?
**A.** 10 to 100 nM

**Q.** What about the Ki [1, 9] of the same molecule?
**A.** 10 to 100 nM

**Q.** And the EC50 [3]?
**A.** 1 to 100 nM

**Q.** Which gastric emptying ([4]; 30 μg/kg) does the source give for `CCC(C)C1NCCOc2ccccc2CCCNC(=O)C(Cc2ccc(Cl)cc2)NC(=O)C(C)N(C)C1=O` (stereo not shown) [compound 25] here?
**A.** demonstrated gastric emptying

**Q.** What about the “increase in gastric emptying relative to the vehicle control group” value ([4]; 100 μg/kg i.v., fasted rats, 15 min) of the same molecule?
**A.** 39%

**Q.** What about the EC50 [2] of the same molecule?
**A.** 1 to 100 nM

**Q.** Which Ki [1, 8] does the source give for `CCC(C)C1NCCOc2cccnc2CCCNC(=O)C(Cc2ccccc2)NC(=O)C(C)N(C)C1=O` (stereo not shown) [compound 177] here?
**A.** 10 to 100 nM

**Q.** What about the Ki [1, 9] of the same molecule?
**A.** 10 to 100 nM

**Q.** And the EC50 [3]?
**A.** 1 to 100 nM

**Q.** For `CCC(C)C1NCCOc2ccccc2C=CCNC(=O)C(Cc2ccccc2)NC(=O)C(C)N(C)C1=O` (stereo not shown) [compound 40], which Ki [1, 8] is on record?
**A.** 0.1 to 10 nM

**Q.** What about the Ki [1, 9] of the same molecule?
**A.** 0.1 to 10 nM

**Q.** And the EC50 [3]?
**A.** 1 to 100 nM

**Q.** Which “gastric emptying and intestinal transit” value [5] does the source give for `CN1CC[C@]23c4c5ccc(O)c4O[C@H]2[C@@H](O)C=C[C@H]3[C@H]1C5` [Morphine] here?
**A.** significantly delayed gastric emptying and intestinal transit

**Q.** Which Ki [1, 8] does the source give for `CCC(C)C1NCCc2ccccc2CCCNC(=O)C(Cc2ccccc2)NC(=O)C(C)N(C)C1=O` (stereo not shown) [compound 214] here?
**A.** 100 to 1000 nM

**Q.** And the Ki [1, 10]?
**A.** 100 to 10000 nM

**Q.** What about the EC50 [3] of the same molecule?
**A.** 100 to 1000 nM

**Q.** Which Ki [1, 8] does the source give for `CCCC1NCCOc2ccccc2C=CCNC(=O)C(Cc2ccccc2)NC(=O)CN(C)C1=O` (stereo not shown) [compound 11] here?
**A.** 10 to 100 nM

**Q.** And the Ki [1, 9]?
**A.** 10 to 100 nM

**Q.** And the EC50 [3]?
**A.** 100 to 1000 nM

**Q.** For `CCC(C)C1NCCOc2ccccc2CCCNC(=O)C(Cc2cccnc2)NC(=O)C(C)N(C)C1=O` (stereo not shown) [compound 170], which Ki [1, 8] is on record?
**A.** 10 to 100 nM

**Q.** And the Ki [1, 9]?
**A.** 10 to 100 nM

**Q.** What about the EC50 [3] of the same molecule?
**A.** 100 to 1000 nM

**Q.** For `CCC[C@H]1C(=O)N(C)[C@H](C)C(=O)N[C@H](Cc2ccccc2)C(=O)NCCCc2ccccc2O[C@H](C)CN1C(=O)OC(C)(C)C`, which ring closure, yield of all isomers [6] is on record?
**A.** 80%

**Q.** Which results are given for `CCCC1NCCOc2ccccc2CCCNC(=O)C(Cc2ccc(O)cc2)NC(=O)CN(C)C1=O` (stereo not shown) [compound 7]?
**A.** Ki [1, 8]: 100 to 1000 nM; Ki [1, 9]: 100 to 10000 nM; EC50 [3]: 1 to 100 nM
